Ends that are not written are not given here. Peptide text beside a SMILES is read from it. * marks the point of attachment. BODIPYFLEthylmaleimide = Cc1cc(C)n2c1C=C1C=CC(CCC(=O)NCCN3C(=O)CC(*)C3=O)=[N+]1[B-]2(F)F; BODIPY = not defined here; Cam = NC(=O)C*

Twelve compounds from patent US8790883B2, “Methods of identifying NF-κB inhibitors” (priority 2003, dated 2014) can be followed below.

Data set [1] can be described thus: Analytical gel filtration, oligomeric states of peptides. Format: physicochemical. The following applies: 10 μM, Superdex 75, buffer with 0.1 mM DDM. On the procedure:
All peptides were loaded at a 10 μM concentration on a superdex 75 HR10/30 column equilibrated in a buffer containing 0.1 mM DDM to improve recovery (see “Materials and methods”). Chromatographic profiles of the CC2 mutant (dashed line) and the CC2 wild type (solid line) fused (BODIPY-Ant-CC2 (WT), BODIPY-Ant-CC2 (Mu), or not fused to the antennapedia sequence (CC2 (WT), CC2 (Mu)) are shown in left panels, and elution profiles of the LZ mutant (dashed line) and the wild type (solid line) fused (BODIPY-Ant-LZ (WT), BODIPY-Ant-LZ (Mu), or not fused to the antennapedia sequence (LZ (WT), LZ (Mu)) are represented in right panels. Elution volumes of globular protein markers are indicated by arrows: Oval, ovalbumin (43 kDa); Chym, chymotrypsinogene A (25 kDa); Ribo, Ribonuclease (13.4 kDa) and Apro, aprotinin (6.5 kDa).
The oligomeric states of peptides were determined by filtration as described in Traincard et al., 2003. In brief, 500 μl samples were loaded on a SUPERDEX™ 75 HR 10/30 column equilibrated in 50 mM Tris-HCl pH 8.0 containing 200 mM NaCl and 0.1 mM DDM, at a constant flow rate of 0.4 ml/min. The presence of the DDM detergent was added in the equilibrium buffer to minimize the adsorption in the column and to increase the peptide recovery. The column was calibrated in the same equilibrium buffer with blue dextran 2000 (void volume), dithioerythritol (total volume), bovine serum albumin (67 kDa, Rs=35.2 Å), ovalbumine (43 kDa, Rs=27.5 Å), chymotrypsinogen A (25 kDa, Rs=21.1 Å), ribonuclease A (13.7 kDa, Rs=16.4 Å), cytochrome C (12.4 kDa, Rs=17.7 Å) and aprotinin (6.5 KDa, Rs=13.5 Å).
Background: In gel filtration, larger molecules generally elute earlier.

The test system of data set [2] is LPS-induced NF-κB activation. In words: NF-κB inhibition assay, first procedure: LPS-induced NF-κB dependent β-galactosidase reporter in 70Z/3-C3 cells. Format: cell-based, murine. To be noted: for LPS-induced NF-κB activation in presence of peptide: 20 μM peptide 2 h, LPS (3 μg/ml) 5 h, 70Z3-C3 cells.
Procedure: The resulting cell line, 70Z3-C3, was incubated for 2 hours in the absence or in the presence of 20 μM of antennapedia peptide (Ant), or BODIPY-labeled antennapedia peptide (BODIPY-Ant), or BODIPY-labeled antennapedia peptide coupled to CC2 (BODIPY-Ant-CC2) or LZ (BODIPY-Ant-LZ) peptides, After peptide internalization, cells were treated for 5 hours with LPS (3 μg/ml, (+) in left panel) or untreated (right panel and (−) in left panel) and the NF-κB activity was measured by β-galactosidase assay. Error bars represent the standard deviation of three separate experiments. (B) Concentration dependence of inhibition of LPS-induced NF-κB activation by BODIPY-Ant-CC2 peptide (left panel) or BODIPY-Ant-LZ peptide (right panel). Cells were treated as in (A) but with different concentration of peptide as indicated. The potential of each peptide to inhibit LPS-induced NF-κB activation was measured by determining the IC50 value that correspond to 50% inhibition of LPS-induced NF-κB activation as compared to the control (no peptide) (C). (D) Effect of the N-fusion sequence of antennapedia on the inhibition of NF-κB activation. Control (no peptide) or CC2, or LZ peptides, with (BODIPY-ANT-CC2, BODIPY-ANT-LZ) or without the antennapedia sequence at the N-terminus (CC2, LZ) were incubated for 2 hours with 70Z3-C3 cells followed with (+) or without (−) the LPS-treatment for 3 hours. NF-κB activity was then measured by β-galactosidase assay.
In a first procedure 2.2×10^5 70Z/3-C3 cells in 220 μl of RPMI 1640 supplemented with 10% fetal calf serum (FCS) and 50 μM β-mercaptoethanol were placed in a 96-well plate and incubated with various concentrations of peptide (0 to 20 μM) at 37° C. in 5% CO2 incubator. After two hours an equal portion (100 μl) of each cell sample transferred in two wells containing each 10^5 cells. One aliquot of cells was then treated for 5 hours with lipopolysaccharides from Salmonella abortus (Sigma) at 0.5 μg/ml final concentration, and the other one left-treated. After 5 hours, cells were centrifuged at 400×g for 5 min at room temperature and the cell pellets were washed three times with cold PBS (250 μl) by centrifugation. Cells were then lysed in the lysis buffer (25 mM tris-phosphate buffer at pH 7.8 containing 8 mM magnesium chloride, 1 mM dithioerythreitol, 1% Triton X-100, 15% glycerol and a protease inhibitor mixture (Roche)), and samples were centrifuged at 4° C. for 20 min to clarify the lysate. The supernatant was then kept on ice, and 30 μl was then assayed to measure the β-galactosidase activity with a plate luminometer (Berthold) using the GALACTON-STAR™ as chemiluminescent substrate (BD Biosciences Clontech, Bronstein et al., 1989). Background of reaction was measured by mixing for 1 hour 30 μl of lysis buffer with the reaction buffer (196 μl) and the GALACTON-STAR™ substrate (4 μl) provided by BD Biosciences. In a second procedure and a more stringent assay, 70Z/3-C3 cells (2.2×105 in 220 μl medium) were centrifuged at 400×g at room temperature after peptide internalization for 2 hours, and cell pellets were washed three times with 200 μl of PBS by centrifugation. Cells were then diluted three times with complete medium, and allowed to grow for at least 24 hours. The following steps are identical to the first procedure.
To analyze the inhibition potential of LPS-induced NF-κB activation by cell permeable BODIPY-Ant-CC2 and BODIPY-Ant-LZ peptides, the present inventors stably transfected the murine pre-B 70Z3 cell line with p12XlacZ-kB, which bears the β-galactosidase reporter gene under the control of the NF-κB transcription factor.
Data set [3] has as its system human retinoblastoma cell lines Y79. In words: Cell death assay (MTS) in retinoblastoma cell line Y79. Format: cell-based. The following applies: for Y79 cells died: 5 μM concentration, longer treatment (FIG. 8C); for Induction of Y79 cell death: 3 hours, various concentrations, peptides without BODIPY. The procedure: Rb cell line Y79 were treated with various concentration of the Ant-CC2 (WT) (filled squares) or Ant-CC2 (Mu) (open squares) (A), or Ant-LZ (WT) (filled circles), or Ant-LZ (Mu) (open circles) (B), or Ant peptide (open triangle) (C) for 3 hours (A, B) or 16 hours (C). Cell survival was then evaluated using the MTS assay as described in “Materials and methods”
The detection of cell death was performed using the MTS assay provided by Promega (CellTiter 96® AQueous one solution cell proliferation assay). Briefly, 0.3×10^6 Y79 cells in 450 μl were treated with 50 μl of the wild type Ant-CC2 and Ant-LZ peptides (0.1 to 20 μM) or their mutants Ant-CC2 (Mu), Ant-LZ (Mu) or the Ant or left untreated in serum-free RPMI medium at 37° C. After an incubation of […], an aliquot of the cell suspension (200 μl, 0.12×10^6 cells), was then transferee in 96-well plates and mixed with the MTS solution (40 μl) containing the MTS compound and the phenazine ethosulfate. Two hours after, the quantity of formazan produced by viable cells was measured using an automated microplate reader (Bio-TeK Instruments, INC) at 490 nm absorbance. Cell survival was observed under microscope and was estimated as a percentage of the value of untreated controls. The background of the reaction was determined by mixing the MTS solution with cell-free RPMI medium. To increase the sensitivity of the cell death assay, the present inventors used peptides devoid of BODIPY-labeling because the absorption spectra of the fluorophor overlaps with that of the formazan product. All experiments were repeated twice and each experiment condition was repeated in duplicate wells in each experiment.

Data set [4] can be described thus: Cytotoxicity of NLM-DR derived peptides (MTS, FACS, microscope), Table 2.
Data set [5] has as its system LPS-induced NF-κB activation. In words: More stringent NF-κB inhibition assay, second procedure: peptide internalization, washing, 24 h growth, then LPS. The data set is classed as cell-based, murine. To be noted: 10 μM peptide. An excerpt: Left panels show a helical wheel diagram of CC2 (A) and LZ (B) peptides. The view is from the top the molecule. The (a) through (g) positions, which are an essential feature of coiled coil sequence (Vinson, 2002, Mol. Cell. Biol.) represent sequential positions in each peptide sequence. The first (a) and fourth (d) positions that are generally occupied by hydrophobic amino acids constitute the hydrophobic core for parallel as well as antiparallel-coiled coils. Mutations that were introduced in (a) positions of the CC2 variant (BODIPY-Ant-CC2 (Mu); shown as residues 6-40 of SEQ ID NO:3, with glycine mutations corresponding to residues 6-40 of SEQ ID NO:5) or in (d) positions of the LZ variant (BODIPY-Ant-(Mu) are shown. In the right panels, 70Z3-C3 cells were incubated for 2 hours in the absence (control) or in the presence of 10 μM of cell permeable wild type (BODIPY-Ant-CC2 (WT)) or mutant (BODIPY-Ant-CC2 (Mu)) CC2 peptides (A) or wild type (BODIPY-Ant-LZ (WT)) or mutant (BODIPY-Ant-(Mu)) LZ peptides (B). The cells were then extensively washed to remove the excess peptide which had not been internalized and the cells were then diluted three times and allowed to grow for 24 hours before treatment for 5 hours with (+) or without LPS (−). NF-κB activity was measured using the β-galactosidase assay. Error bars represent the standard deviation of two independent experiments.
(A) Sequence alignment of the NEMO-derived LZ (residues 301-336 of SEQ ID NO: 12) and the GCN4 peptides (residues 23-55 of SEQ ID NO:8). Both coiled-coil motifs were aligned using clustalX. Identical and similar amino acid residues (shaded) are indicated by (!) or (*), respectively. (B) Overview and helical wheel diagram of the GCN4 coiled-coil (top view). The amino-acid sequence of GCN4 is shown with its corresponding [a-g] positions and residues that differ from the corresponding NEMO-derived LZ sequence are boxed according to their degree of conservation. Identical (open square) and similar residues (open triangle) are indicated. […] NF-κB activity was measured using the b-galactosidase assay. […]

For “SKGMQLEDLRQQGQQAEEAGVAKQELGDKLKEEAEQHKIV [CC2 (Mu)]”, in data set [1], the “Oligomeric state by gel filtration” value is listed as “lost its ability to oligomerize”.
“LKAQADIYKADFQAERHAREKLVEKKEYLQEQLEQLQREFNKL [LZ (WT)]”: in data set [2] (peptide 2 h, LPS 3 h, 70Z3-C3 cells (FIG. 3D)), the “LPS-induced NF-κB activation, peptides not fused to antennapedia” value is “same level of activation as the control”. The “Oligomeric state by gel filtration” value in data set [1] is reported as “dimer”.
For “Ant: antennapedia/penetratin internalization peptide without BODIPY label (SEQ ID NO: 1) (CRQIKIWFQNRRMKWKK) [reference compound]”, in data set [3] (16 hours (FIG. 8C)), the “Effect on Y79 cell survival, longer treatment” value is given as “did not affect cell survival”. Further, the “LPS-induced NF-κB activation in presence of peptide” value in data set [2] was “same level of NF-κB activation as the control”.
Consider “LKAQADIYKADFQAERHAREKLVEKKEYSQEQLEQSQREFNKL [LZ (Mu)]”, for which the “Oligomeric state by gel filtration” value in data set [1] was “still detected dimerization”.
For `CC[C@H](C)[C@H](NC(=O)[C@H](CC(=O)O)NC(=O)[C@H](C)NC(=O)[C@H](CCC(N)=O)NC(=O)[C@H](C)NC(=O)[C@H](CCCCN)NC(=O)[C@H](CC(C)C)NC(=O)[C@H](CCCNC(=N)N)NC(=O)[C@H](CCCNC(=N)N)NC(=O)[C@H](CCCNC(=N)N)NC(=O)[C@H](CCC(N)=O)NC(=O)[C@H](CCCNC(=N)N)NC(=O)[C@H](CCCNC(=N)N)NC(=O)[C@H](CCCCN)NC(=O)[C@H](CCCCN)NC(=O)[C@H](CCCNC(=N)N)NC(=O)CNC(=O)[C@H](Cc1ccc(O)cc1)NC(=O)[C@H](CSC1CC(=O)N(CCNC(=O)CCC2=[N+]3C(=Cc4c(C)cc(C)n4[B-]3(F)F)C=C2)C1=O)NC(C)=O)C(=O)N[C@@H](Cc1ccc(O)cc1)C(=O)N[C@@H](CCCCN)C(=O)N[C@@H](C)C(=O)N[C@@H](CCCNC(=N)N)C(=O)N[C@@H](Cc1ccccc1)C(=O)N[C@@H](CCC(N)=O)C(=O)N[C@@H](C)C(=O)N[C@@H](CCC(=O)O)C(=O)N[C@@H](CCCNC(=N)N)C(=O)N[C@@H](Cc1c[nH]cn1)C(=O)N[C@@H](C)C(=O)N[C@@H](CCCNC(=N)N)C(=O)N[C@@H](CCC(=O)O)C(=O)N[C@@H](CCCCN)C(N)=O` (stereo partly shown) [BODIPY-TAT-NLM-DR] (Ac-C(BODIPYFLEthylmaleimide)YGRKKRRQRRRLKAQADIYKARFQAERHAREK-NH2), in data set [4], the “Cytotoxicity Cell morphology FACS” value is “no” and the “Cytotoxicity Cell morphology Microscope” value is listed as “no”.
For “B-CRQIKIWFQNRRMKWKKLKAQADIYKADFQAERHAREKLVEKKEYLQEQLEQLQREFNKL (C(BODIPY)RQIKIWFQNRRMKWKKLKAQADIYKADFQAERHAREKLVEKKEYLQEQLEQLQREFNKL-NH2; not fully specified (N-terminus); reading uncertain) [BODIPY-Ant-LZ (WT)]”, the “LPS-induced NF-κB activation in presence of peptide” value in data set [2] is “decreased significantly”; in data set [2] (listed as “Leucine zipper” peptide), “completely eliminates cell response”.
“Ac-C(Cam)RQIKIWFQNRRMKWKKLKAQADIYKADFQAERHAREKLVEKKEYLQEQLEQLQREFNKL-NH2 [Ant-LZ]” showed a Y79 cells died in data set [3] of 80%.
As to “B-CRQIKIWFQNRRMKWKKSKGMQLEDLRQQGQQAEEAGVAKQELGDKLKEEAEQHKIV (C(BODIPY)RQIKIWFQNRRMKWKKSKGMQLEDLRQQGQQAEEAGVAKQELGDKLKEEAEQHKIV-NH2; not fully specified (N-terminus); printed as B-CRQIKIWFQNRRMKWKKSKGMQLEDLRQQGQQAEEAGVAKQELGDKLKEEAEQHKIV; reading uncertain) [BODIPY-Ant-CC2 (Mu)]”, the “Effect on LPS-induced NF-κB activation” value in data set [5] was “did not affect the NF-κB activation”.
In data set [3], “Ac-C(Cam)RQIKIWFQNRRMKWKKSKGMQLEDLRQQLQQAEEALVAKQELIDKLKEEAEQHKIV-NH2 [Ant-CC2]” gave a Y79 cells died of 55%.
With “Ant-CC2 (Mu): mutant Ant-CC2 devoid of BODIPY-labeling (SEQ ID NO: 4) (Ac-CRQIKIWFQNRRMKWKKSKGMQLEDLRQQGQQAEEAGVAKQELGDKLKEEAEQHKIV-NH2)”, the “Induction of Y79 cell death” value in data set [3] is given as “did not induce concentration cell death”.
In the case of “Ant-LZ (Mu): mutant Ant-LZ devoid of BODIPY-labeling (SEQ ID NO: 8) (Ac-CRQIKIWFQNRRMKWKKLKAQADIYKADFQAERHAREKLVEKKEYSQEQLEQSQREFNKL-NH2)”, the “Induction of Y79 cell death” value in data set [3] is on record as “not”.
With “B-CRQIKIWFQNRRMKWKK ({BODIPY}-CRQIKIWFQNRRMKWKK; reading uncertain) [BODIPY-Ant, reference compound]”, the “LPS-induced NF-κB activation in presence of peptide” value in data set [2] is on record as “same level of NF-κB activation as the control”.
